For data set [1], the system named is human neuroblastoma MC-65 cells. Nature of the data set: cells. Particulars: for EC100 / minimal effective concentration: Homo sapiens, MC65, 48 h; for EC100: read-out: EC100 (maximum effective concentration); for minimal effective concentration: read-out: TH (threshold protective concentration); for CC2 (cytotoxic concentration): MC-65, cultured without tetracycline; for CC2 (cytotoxic concentration) / CC1 (cytotoxic concentration): viability below 80%; for CC1 (cytotoxic concentration): MC-65, presence of TET. How it is done: In this assay, human neuroblastoma cells (MC-65 cells) are genetically engineered to conditionally express amyloid β peptide (Aβ). The Aβ production is suppressed by tetracycline (TET+) presence in culture medium, and its production is activated when TET is withdrawn (TET−). The activation of Aβ production results in cell death “MC-65 suicide”.
Protective effect of compounds against edogenously produced amyloid beta (Aβ) was assessed in human neuroblastoma MC-65 cells. MC-65 cells have been stably transformed to conditionally express high levels of a partial amyloid precursor (AP) fusion protein (Bryce Sopher et al., Brain Res Mol Brain Res. 1994, 207-17.). This protein is further proteolitically processed in the cells to form a set of AP-derived Aβ peptides. […] Activity of the promoter is tightly regulated by the presence of the antibiotic tetracycline (TET) in the culture medium. In the presence of TET (TET+), the promoter is in the basal state and no amyloid beta peptide is synthesized. In the absence of TET (TET−) the promoter is in induced state, resulting in the accumulation of Aβ peptides in the cells, degenerative changes in cell morphology and decreased survival.
Transfected human neuroblastoma cells (MC-65) were cultured in DMEM (ATCC) supplemented with non-essential amino acids and 10% FBS (VWR) in the presence of TET (1 μg/mL). For the experiment, the cells were plated at 35,000 cells/cm^2 and grown for 1 day in the regular culture media prior to compound addition. On the day of the assay, culture supernatant was removed from the wells and cells were thoroughly washed once with the compound incubation matrix containing no FBS and no TET. MC-65 cells were treated with a test compound at pre-determined range of concentrations in a basal medium containing no FBS and in the absence or presence of 1 μg/mL TET for approximately 48 h. Cell viability was then measured using the MTT method.
For data analysis, cell viabilities relative to the control not treated with a test compound and maintained in the presence of TET were plotted against the compound concentration. […] Cytotoxicity of the test compound was assessed in the cells maintained in the presence of TET.

For data set [2], the system named is SH-SY5Y human neuroblastoma cells. The settings on record: for CC2 (cytotoxic concentration): H2O2-treated cells, viability below 80%; for CC1 (cytotoxic concentration): absence of H2O2, viability below 80%. The text has this:
Hydrogen peroxide (H2O2) is a major ROS (reactive oxidative species), which causes oxidative stress, and can induce apoptosis in many different cell types. One of the CNS drug design strategies is to use compounds with antioxidant properties as a possible treatment of both acute and chronic neurodegenerative diseases (Kang et al. Bioorganic & Medicinal Chemistry Letters, 2004, 14, 2261-2264). This involves testing the compounds of this invention for their protective effect against oxidative stress-induced cell death in SH-SY5Y human neuroblastoma cells. SH-SY5Y human neuroblastoma cells were cultured in DMEM (ATCC)/F12 (Cellgro) with 10% FBS. The cells were plated at 30,000 cells/cm^2 and grown for 1 day in the regular culture media prior to compound addition. Cells were routinely treated with the test compound, at a pre-determined range of concentrations, in the presence or absence of 50 μM hydrogen peroxide in a basal medium containing no FBS for 16-22 h. Cell viability was then measured using the routine MTT method (Mosmann, T., Rapid Colorimetric Assay for Cellular Growth and Survival: Application to Proliferation and Cytotoxicity Assays”. J. Immunol. Meth. 1983, 65, 55-63).
For data analysis, cell viability relative to control not treated with either H2O2 or the test compound, was plotted against the compound concentration. […] Cytotoxicity of the test compound was assessed in the absence of hydrogen peroxide.

Consider `Cc1cc(=O)c(O)cn1CC(F)(F)F` [Apo6994, 5-hydroxy-2-methyl-1-(2,2,2-trifluoroethyl)pyridin-4(1H)-one], for which, in data set [1], the EC100 was found to be 10 µM, the minimal effective concentration turned out to be 1 µM, the “CC2 (cytotoxic concentration)” value is more than 80 µM and the “CC1 (cytotoxic concentration)” value was more than 80 µM. For the same molecule, in data set [2], the “CC2 (cytotoxic concentration)” value came to 640 µM and the “CC1 (cytotoxic concentration)” value stood at 160 µM.

For the molecule `CNC(=O)[C@@H](C)NC(c1c(O)c(=O)ccn1C)C(F)(F)F` (stereo partly drawn) [Apo6998, N-methyl-N2-[2,2,2-trifluoro-1-(3-hydroxy-1-methyl-4-oxo-1,4-dihydropyridin-2-yl)ethyl]-D-alaninamide], in data set [2], the “CC2 (cytotoxic concentration)” value is 100 µM and the “CC1 (cytotoxic concentration)” value was found to be 20 µM.

On to `CN(C)Cc1cc(=O)c(O)c(CC(F)(F)F)n1C` [Apo7021, 6-[(dimethylamino)methyl]-3-hydroxy-1-methyl-2-(2,2,2-trifluoroethyl)pyridin-4(1H)-one], for which, in data set [1], the EC100 came out at 10 µM, the minimal effective concentration turned out to be 0.1 µM, the “CC2 (cytotoxic concentration)” value came to 20 µM and the “CC1 (cytotoxic concentration)” value came to 10 µM. Besides, in data set [2], the “CC2 (cytotoxic concentration)” value was more than 640 µM and the “CC1 (cytotoxic concentration)” value was determined as 80 µM.

With `CN(C)Cc1cc(=O)c(O)c(C(O)C(F)(F)F)n1C` (centres unmarked) [Apo7022, 6-[(dimethylamino)methyl]-3-hydroxy-1-methyl-2-(2,2,2-trifluoro-1-hydroxyethyl)pyridin-4(1H)-one], in data set [1], the EC100 stood at 20 µM, the minimal effective concentration was 0.1 µM, the “CC2 (cytotoxic concentration)” value turned out to be 40 µM and the “CC1 (cytotoxic concentration)” value was 10 µM. Also, in data set [2], the “CC2 (cytotoxic concentration)” value came to 320 µM and the “CC1 (cytotoxic concentration)” value came to 40 µM.

In the case of `C[C@H](NCc1cc(=O)c(O)c(C(O)C(F)(F)F)n1C)C(=O)O` (stereo partly drawn) [Apo7032, N-{[5-hydroxy-1-methyl-4-oxo-6-(2,2,2-trifluoro-1-hydroxyethyl)-1,4-dihydropyridin-2-yl]methyl}-L-alanine], in data set [1], the EC100 came to 10 µM, the minimal effective concentration was 0.1 µM, the “CC2 (cytotoxic concentration)” value was found to be 40 µM and the “CC1 (cytotoxic concentration)” value came out at 80 µM. Moreover, in data set [2], the “CC2 (cytotoxic concentration)” value is more than 640 µM and the “CC1 (cytotoxic concentration)” value amounted to 10 µM.

Consider `CNC(=O)[C@H](C)NCc1cc(=O)c(O)c(C(O)C(F)(F)F)n1C` (stereo partly drawn) [Apo7033, N-2-{[5-hydroxy-1-methyl-4-oxo-6-(2,2,2-trifluoro-1-hydroxyethyl)-1,4-dihydropyridin-2-yl]methyl}-N-methyl-L-alaninamide], for which, in data set [2], the “CC2 (cytotoxic concentration)” value was more than 640 µM and the “CC1 (cytotoxic concentration)” value is 40 µM.

In the case of `Cc1c(Cl)c(=O)c(O)c(C(O)C(F)(F)F)n1C` (centres unmarked) [Apo7038, 3-chloro-5-hydroxy-1,2-dimethyl-6-(2,2,2-trifluoro-1-hydroxyethyl)pyridin-4(1H)-one], in data set [2], the “CC2 (cytotoxic concentration)” value is more than 640 µM and the “CC1 (cytotoxic concentration)” value was 40 µM.

For `Cc1c(O)c(=O)c(C(N2CCCCC2)C(F)(F)F)cn1C` (centres unmarked) [Apo7054, 3-Hydroxy-1,2-dimethyl-5-[2,2,2-trifluoro-1-(piperidin-1-yl)ethyl]pyridin-4(1H)-one], in data set [1], the EC100 stood at 1 µM, the minimal effective concentration is 0.1 µM, the “CC2 (cytotoxic concentration)” value came out at 20 µM and the “CC1 (cytotoxic concentration)” value stood at 20 µM. In data set [2], the “CC2 (cytotoxic concentration)” value was more than 640 µM and the “CC1 (cytotoxic concentration)” value was 5 µM.

Turning to `Cc1c(O)c(=O)c(C(n2ccnc2)C(F)(F)F)cn1C` (centres unmarked) [Apo7055, 3-Hydroxy-1,2-dimethyl-5-[2,2,2-trifluoro-1-(1H-imidazol-1-yl)ethyl]pyridin-4(1H)-one], in data set [1], the EC100 was 20 µM, the minimal effective concentration was 1 µM, the “CC2 (cytotoxic concentration)” value turned out to be 40 µM and the “CC1 (cytotoxic concentration)” value was 40 µM. In data set [2], the “CC2 (cytotoxic concentration)” value is more than 640 µM and the “CC1 (cytotoxic concentration)” value came out at 10 µM.

On to `C#CCN(C)C(c1c(O)c(=O)ccn1C)C(F)(F)F` (centres unmarked) [Apo7057, 3-hydroxy-1-methyl-2-{2,2,2-trifluoro-1-[methyl(prop-2-yn-1-yl)amino]ethyl}pyridin-4(1H)-one], for which, in data set [1], the EC100 came to 10 µM, the minimal effective concentration stood at 1 µM, the “CC2 (cytotoxic concentration)” value was 20 µM and the “CC1 (cytotoxic concentration)” value is 20 µM. In addition, in data set [2], the “CC2 (cytotoxic concentration)” value amounted to 80 µM and the “CC1 (cytotoxic concentration)” value amounted to 5 µM.

For the molecule `Cn1ccc(=O)c(O)c1C(N1CCCCC1)C(F)(F)F` (centres unmarked) [Apo7058, 3-hydroxy-1-methyl-2-[2,2,2-trifluoro-1-(piperidin-1-yl)ethyl]pyridin-4(1H)-one], in data set [1], the EC100 turned out to be 10 µM, the minimal effective concentration is 1 µM, the “CC2 (cytotoxic concentration)” value amounted to 80 µM and the “CC1 (cytotoxic concentration)” value turned out to be 10 µM. Moreover, in data set [2], the “CC2 (cytotoxic concentration)” value was more than 640 µM and the “CC1 (cytotoxic concentration)” value was found to be 20 µM.

Regarding `Cc1c(Cl)c(=O)c(O)c(C(N(C)C)C(F)(F)F)n1C` (centres unmarked) [Apo7059, 3-chloro-6-[1-(dimethylamino)-2,2,2-trifluoroethyl]-5-hydroxy-1,2-dimethylpyridin-4(1H)-one], in data set [1], the EC100 stood at 10 µM, the minimal effective concentration stood at 1 µM, the “CC2 (cytotoxic concentration)” value amounted to 40 µM and the “CC1 (cytotoxic concentration)” value turned out to be 10 µM. Besides, in data set [2], the “CC2 (cytotoxic concentration)” value was found to be 640 µM and the “CC1 (cytotoxic concentration)” value is 40 µM.

On to `Cn1cc(Cl)c(=O)c(O)c1C(N1CCCCC1)C(F)(F)F` (centres unmarked) [Apo7061, 5-chloro-3-hydroxy-1-methyl-2-[2,2,2-trifluoro-1-(piperidin-1-yl)ethyl]pyridin-4(1H)-one], for which, in data set [1], the EC100 came out at 10 µM, the minimal effective concentration was 1 µM, the “CC2 (cytotoxic concentration)” value was found to be 20 µM and the “CC1 (cytotoxic concentration)” value amounted to 40 µM. Further, in data set [2], the “CC2 (cytotoxic concentration)” value stood at 10 µM and the “CC1 (cytotoxic concentration)” value came to 10 µM.

For the molecule `Cc1c(O)c(=O)c(C(N2CCN(C)CC2)C(F)(F)F)cn1C.Cl` (centres unmarked) [Apo7063, 3-Hydroxy-1,2-dimethyl-5-[2,2,2-trifluoro-1-(4-methylpiperazin-1-yl)ethyl]pyridin-4(1H)-one hydrochloride], in data set [2], the “CC2 (cytotoxic concentration)” value is more than 640 µM and the “CC1 (cytotoxic concentration)” value was determined as 320 µM.

`Cc1cc(=O)c(O)c(CN2CCCCC2)n1CC(F)(F)F` [Apo7071, 3-hydroxy-6-methyl-2-(piperidin-1-ylmethyl)-1-(2,2,2-trifluoroethyl)pyridin-4(1H)-one]: in data set [1], the EC100 was 10 µM, the minimal effective concentration amounted to 1 µM, the “CC2 (cytotoxic concentration)” value came to 20 µM and the “CC1 (cytotoxic concentration)” value was determined as 40 µM. In addition, in data set [2], the “CC2 (cytotoxic concentration)” value came out at 80 µM and the “CC1 (cytotoxic concentration)” value was found to be 20 µM.

Consider `CN1CCN(C(c2c(O)c(=O)ccn2C)C(F)(F)F)CC1` (centres unmarked) [Apo7073, 3-hydroxy-1-methyl-2-[2,2,2-trifluoro-1-(4-methylpiperazin-1-yl)ethyl]pyridin-4(1H)-one], for which, in data set [1], the EC100 stood at 10 µM, the minimal effective concentration stood at 0.1 µM, the “CC2 (cytotoxic concentration)” value worked out at 20 µM and the “CC1 (cytotoxic concentration)” value came to 40 µM. In data set [2], the “CC2 (cytotoxic concentration)” value is more than 640 µM and the “CC1 (cytotoxic concentration)” value was 40 µM.

(Values after patent publication US9938240B2, “Fluorinated derivatives of 3-hydroxypyridin-4-ones” (Apotex Technologies Inc., priority 2009, dated 2018).)
